The record followed here is article PMC11785374, “Synergistic effect of inhibiting CHK2 and DNA replication on cancer cell growth” (eLife, 2025).

Test [1] concerns the target T1, POLD1 (catalytic subunit of DNA polymerase δ) (Homo sapiens, UniProt P28340).
T1 sequence (P28340 1-1107): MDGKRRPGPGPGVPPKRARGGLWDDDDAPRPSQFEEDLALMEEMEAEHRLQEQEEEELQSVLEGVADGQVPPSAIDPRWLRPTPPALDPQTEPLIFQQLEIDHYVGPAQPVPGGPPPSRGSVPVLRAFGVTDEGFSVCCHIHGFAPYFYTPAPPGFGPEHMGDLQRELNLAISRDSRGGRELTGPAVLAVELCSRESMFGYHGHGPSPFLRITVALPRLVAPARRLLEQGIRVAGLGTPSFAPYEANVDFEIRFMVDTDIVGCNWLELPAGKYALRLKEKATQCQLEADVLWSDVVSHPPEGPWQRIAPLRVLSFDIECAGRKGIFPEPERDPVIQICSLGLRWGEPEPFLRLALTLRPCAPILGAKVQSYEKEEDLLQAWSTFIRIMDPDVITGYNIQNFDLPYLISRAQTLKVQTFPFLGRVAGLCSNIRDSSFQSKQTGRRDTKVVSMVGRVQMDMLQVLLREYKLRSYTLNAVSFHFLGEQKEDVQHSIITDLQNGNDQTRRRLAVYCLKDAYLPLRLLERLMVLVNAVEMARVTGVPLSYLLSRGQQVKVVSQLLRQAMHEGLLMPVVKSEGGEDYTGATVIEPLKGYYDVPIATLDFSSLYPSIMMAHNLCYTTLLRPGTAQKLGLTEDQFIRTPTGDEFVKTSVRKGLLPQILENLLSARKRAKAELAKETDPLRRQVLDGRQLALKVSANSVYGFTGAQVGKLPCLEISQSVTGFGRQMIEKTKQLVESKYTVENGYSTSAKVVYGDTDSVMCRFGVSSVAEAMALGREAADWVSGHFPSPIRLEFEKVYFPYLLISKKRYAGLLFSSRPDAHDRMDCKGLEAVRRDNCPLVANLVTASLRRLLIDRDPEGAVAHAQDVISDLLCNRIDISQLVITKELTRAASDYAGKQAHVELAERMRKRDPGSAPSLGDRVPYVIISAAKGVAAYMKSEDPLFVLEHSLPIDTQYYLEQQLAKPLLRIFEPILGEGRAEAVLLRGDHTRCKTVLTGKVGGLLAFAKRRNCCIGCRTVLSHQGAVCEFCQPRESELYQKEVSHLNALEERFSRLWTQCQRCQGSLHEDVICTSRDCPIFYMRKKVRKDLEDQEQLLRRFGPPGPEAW
Nature of the test: CETSA in MCF-7 cells ([…] BKC), western blot. It is filed as cell-based. On the technique in general: In western blotting, separated proteins are transferred to a membrane and probed.

Test [2] addresses POLE (catalytic subunit of DNA polymerase ε) (Homo sapiens, UniProt Q07864). Nature of the test: CETSA in MCF-7 cells ([…] BKC), western blot. The class given is cell-based.
Test [3] deals with T2, POLD1 (p125, catalytic subunit of Polδ) (Xenopus laevis, UniProt Q642R8).
T2 construct: gene pold1.L
T2 sequence (Q642R8 1-1109): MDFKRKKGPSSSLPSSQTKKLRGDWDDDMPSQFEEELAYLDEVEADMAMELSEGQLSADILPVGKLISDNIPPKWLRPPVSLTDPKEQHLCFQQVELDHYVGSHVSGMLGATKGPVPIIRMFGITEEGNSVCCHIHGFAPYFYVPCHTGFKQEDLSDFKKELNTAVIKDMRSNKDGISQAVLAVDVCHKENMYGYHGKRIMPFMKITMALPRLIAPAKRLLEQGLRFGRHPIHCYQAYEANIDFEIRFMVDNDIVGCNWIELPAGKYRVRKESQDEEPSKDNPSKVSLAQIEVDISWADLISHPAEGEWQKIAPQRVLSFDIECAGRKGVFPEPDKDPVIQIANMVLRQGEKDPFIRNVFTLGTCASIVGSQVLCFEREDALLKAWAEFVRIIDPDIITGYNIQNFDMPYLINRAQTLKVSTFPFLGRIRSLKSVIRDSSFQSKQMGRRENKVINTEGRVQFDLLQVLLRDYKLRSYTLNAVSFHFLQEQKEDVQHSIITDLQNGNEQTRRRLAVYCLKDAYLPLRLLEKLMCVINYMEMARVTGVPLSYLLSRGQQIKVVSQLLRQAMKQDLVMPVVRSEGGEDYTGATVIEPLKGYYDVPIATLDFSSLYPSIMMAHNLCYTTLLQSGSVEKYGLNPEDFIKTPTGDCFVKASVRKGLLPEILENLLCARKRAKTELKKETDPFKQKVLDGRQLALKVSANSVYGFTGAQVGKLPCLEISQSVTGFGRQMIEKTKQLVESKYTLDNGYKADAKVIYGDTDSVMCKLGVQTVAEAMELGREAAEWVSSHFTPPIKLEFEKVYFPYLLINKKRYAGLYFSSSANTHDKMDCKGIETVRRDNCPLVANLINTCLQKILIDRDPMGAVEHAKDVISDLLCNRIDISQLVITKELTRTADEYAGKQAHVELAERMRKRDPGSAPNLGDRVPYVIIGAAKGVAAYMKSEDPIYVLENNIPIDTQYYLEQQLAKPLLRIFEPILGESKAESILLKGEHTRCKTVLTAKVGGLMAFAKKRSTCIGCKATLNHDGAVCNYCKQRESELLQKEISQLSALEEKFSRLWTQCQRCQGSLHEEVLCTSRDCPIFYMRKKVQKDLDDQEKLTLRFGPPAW
Nature of the test: CETSA in Xenopus egg extracts ([…] BKC), western blot. The class given is cell-free.

In another test the target is T3, Aurora-B (Homo sapiens, UniProt Q96GD4).
T3 construct: gene AURKB
Nature of the test: radiometric in vitro kinase assay (Eurofins KinaseProfiler). The class given is biochemical.

The target of another test is T4, JNK3 (Homo sapiens, UniProt P53779).
T4 construct: gene MAPK10
Described as above. It is filed as biochemical.

For another test, the target named is T5, Aurora-A (Homo sapiens, UniProt O14965).
T5 construct: gene AURKA
T5 sequence (O14965 1-403): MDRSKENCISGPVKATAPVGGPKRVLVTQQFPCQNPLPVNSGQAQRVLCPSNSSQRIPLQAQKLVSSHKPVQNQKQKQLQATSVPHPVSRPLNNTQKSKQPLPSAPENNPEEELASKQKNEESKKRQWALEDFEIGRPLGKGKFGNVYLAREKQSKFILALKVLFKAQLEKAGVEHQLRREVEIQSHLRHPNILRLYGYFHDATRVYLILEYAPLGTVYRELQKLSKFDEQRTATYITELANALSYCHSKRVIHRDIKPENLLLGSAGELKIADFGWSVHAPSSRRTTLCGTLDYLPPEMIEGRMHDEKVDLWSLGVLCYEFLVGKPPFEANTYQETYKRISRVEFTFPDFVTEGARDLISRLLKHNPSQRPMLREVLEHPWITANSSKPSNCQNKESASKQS
Described as above. It is filed as biochemical.

The target in the next test is T6, CHK2 (Homo sapiens, UniProt O96017).
T6 construct: gene CHEK2
Nature of the test: radiometric in vitro kinase assay (Eurofins KinaseProfiler); also CETSA in MCF-7 cells. It is filed as biochemical.

The next test concerns the target AKT1/PKBα (Homo sapiens, UniProt P31749). Nature of the test: radiometric in vitro kinase assay (Eurofins KinaseProfiler). It is filed as biochemical.

AKT1/PKBα, sequence (P31749 whole entry): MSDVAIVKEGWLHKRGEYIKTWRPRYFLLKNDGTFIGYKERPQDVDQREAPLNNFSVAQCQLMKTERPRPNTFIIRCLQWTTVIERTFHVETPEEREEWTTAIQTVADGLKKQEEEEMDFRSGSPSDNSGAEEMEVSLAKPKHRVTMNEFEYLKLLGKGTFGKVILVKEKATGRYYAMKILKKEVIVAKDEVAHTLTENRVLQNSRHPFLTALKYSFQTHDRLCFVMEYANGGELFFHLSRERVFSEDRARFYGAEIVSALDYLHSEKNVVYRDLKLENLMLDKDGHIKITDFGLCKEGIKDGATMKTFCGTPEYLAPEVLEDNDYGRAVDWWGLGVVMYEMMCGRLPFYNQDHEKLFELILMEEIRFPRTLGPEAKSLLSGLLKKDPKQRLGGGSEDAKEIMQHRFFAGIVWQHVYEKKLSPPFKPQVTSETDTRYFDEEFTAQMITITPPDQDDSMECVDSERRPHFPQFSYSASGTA
T3 sequence (Q96GD4 whole entry): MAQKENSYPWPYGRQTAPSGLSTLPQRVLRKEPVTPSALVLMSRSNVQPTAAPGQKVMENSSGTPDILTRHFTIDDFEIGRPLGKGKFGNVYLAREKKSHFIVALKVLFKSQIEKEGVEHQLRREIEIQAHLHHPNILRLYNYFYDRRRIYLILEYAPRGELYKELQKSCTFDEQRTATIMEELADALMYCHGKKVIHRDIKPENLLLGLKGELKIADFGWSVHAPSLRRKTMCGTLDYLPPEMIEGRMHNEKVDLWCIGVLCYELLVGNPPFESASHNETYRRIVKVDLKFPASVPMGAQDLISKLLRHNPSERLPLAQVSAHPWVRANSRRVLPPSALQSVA
POLE (catalytic subunit of DNA polymerase ε), sequence (Q07864 whole entry): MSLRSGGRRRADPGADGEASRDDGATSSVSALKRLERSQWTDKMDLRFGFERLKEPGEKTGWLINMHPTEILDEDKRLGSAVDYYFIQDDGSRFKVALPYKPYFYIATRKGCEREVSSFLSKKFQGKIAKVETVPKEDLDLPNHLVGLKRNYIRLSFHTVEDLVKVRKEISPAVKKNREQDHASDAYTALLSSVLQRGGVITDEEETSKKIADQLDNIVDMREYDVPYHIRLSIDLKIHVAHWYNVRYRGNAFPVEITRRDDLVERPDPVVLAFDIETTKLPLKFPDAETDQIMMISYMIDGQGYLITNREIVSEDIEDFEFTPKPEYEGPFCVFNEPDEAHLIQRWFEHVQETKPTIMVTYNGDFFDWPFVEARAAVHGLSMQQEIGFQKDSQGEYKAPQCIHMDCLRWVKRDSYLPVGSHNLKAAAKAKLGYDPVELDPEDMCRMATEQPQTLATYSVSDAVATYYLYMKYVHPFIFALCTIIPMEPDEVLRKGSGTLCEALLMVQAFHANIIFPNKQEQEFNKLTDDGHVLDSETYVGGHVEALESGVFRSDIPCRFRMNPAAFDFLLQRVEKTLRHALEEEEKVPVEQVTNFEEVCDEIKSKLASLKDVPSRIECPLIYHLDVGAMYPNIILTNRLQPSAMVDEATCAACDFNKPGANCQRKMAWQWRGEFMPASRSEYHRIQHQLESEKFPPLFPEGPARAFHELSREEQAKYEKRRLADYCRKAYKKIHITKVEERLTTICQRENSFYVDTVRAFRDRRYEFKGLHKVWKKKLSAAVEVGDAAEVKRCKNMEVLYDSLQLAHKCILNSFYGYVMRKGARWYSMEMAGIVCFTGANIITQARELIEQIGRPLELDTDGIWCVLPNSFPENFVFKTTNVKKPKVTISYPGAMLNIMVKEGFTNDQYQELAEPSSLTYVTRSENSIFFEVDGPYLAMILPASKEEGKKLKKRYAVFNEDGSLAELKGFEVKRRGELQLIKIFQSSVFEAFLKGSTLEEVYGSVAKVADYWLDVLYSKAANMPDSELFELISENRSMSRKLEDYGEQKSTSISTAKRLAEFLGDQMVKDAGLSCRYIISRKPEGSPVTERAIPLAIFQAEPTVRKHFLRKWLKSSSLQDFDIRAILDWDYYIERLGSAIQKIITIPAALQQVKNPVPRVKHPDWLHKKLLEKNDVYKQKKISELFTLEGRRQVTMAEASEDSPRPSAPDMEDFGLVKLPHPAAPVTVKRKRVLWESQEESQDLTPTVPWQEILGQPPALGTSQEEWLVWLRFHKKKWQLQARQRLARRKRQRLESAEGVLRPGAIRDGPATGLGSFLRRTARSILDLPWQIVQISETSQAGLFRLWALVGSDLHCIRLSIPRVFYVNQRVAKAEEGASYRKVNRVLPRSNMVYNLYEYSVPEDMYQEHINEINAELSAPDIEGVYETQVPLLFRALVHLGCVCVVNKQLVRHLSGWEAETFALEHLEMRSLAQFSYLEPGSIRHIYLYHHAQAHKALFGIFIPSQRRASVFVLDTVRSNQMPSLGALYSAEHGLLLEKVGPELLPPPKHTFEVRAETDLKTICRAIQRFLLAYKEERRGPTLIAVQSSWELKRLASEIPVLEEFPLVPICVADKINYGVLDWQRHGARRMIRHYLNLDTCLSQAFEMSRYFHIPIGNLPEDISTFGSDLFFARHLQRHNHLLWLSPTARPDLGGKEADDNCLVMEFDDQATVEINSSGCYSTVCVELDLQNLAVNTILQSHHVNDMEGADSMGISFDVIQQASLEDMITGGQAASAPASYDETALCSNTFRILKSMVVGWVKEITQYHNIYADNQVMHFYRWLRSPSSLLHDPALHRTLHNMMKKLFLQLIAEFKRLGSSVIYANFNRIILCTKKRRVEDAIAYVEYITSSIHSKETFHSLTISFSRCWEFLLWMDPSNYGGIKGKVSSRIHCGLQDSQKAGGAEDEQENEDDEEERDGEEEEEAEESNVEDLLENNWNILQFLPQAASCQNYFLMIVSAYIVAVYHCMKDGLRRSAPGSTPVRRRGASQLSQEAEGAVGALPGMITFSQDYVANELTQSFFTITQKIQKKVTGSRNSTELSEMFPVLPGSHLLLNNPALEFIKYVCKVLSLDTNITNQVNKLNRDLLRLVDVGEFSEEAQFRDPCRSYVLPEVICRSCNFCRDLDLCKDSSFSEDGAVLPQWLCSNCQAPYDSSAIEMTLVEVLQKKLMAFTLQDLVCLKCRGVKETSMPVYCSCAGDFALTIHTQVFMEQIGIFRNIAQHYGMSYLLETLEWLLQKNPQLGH
T6 sequence (O96017 whole entry): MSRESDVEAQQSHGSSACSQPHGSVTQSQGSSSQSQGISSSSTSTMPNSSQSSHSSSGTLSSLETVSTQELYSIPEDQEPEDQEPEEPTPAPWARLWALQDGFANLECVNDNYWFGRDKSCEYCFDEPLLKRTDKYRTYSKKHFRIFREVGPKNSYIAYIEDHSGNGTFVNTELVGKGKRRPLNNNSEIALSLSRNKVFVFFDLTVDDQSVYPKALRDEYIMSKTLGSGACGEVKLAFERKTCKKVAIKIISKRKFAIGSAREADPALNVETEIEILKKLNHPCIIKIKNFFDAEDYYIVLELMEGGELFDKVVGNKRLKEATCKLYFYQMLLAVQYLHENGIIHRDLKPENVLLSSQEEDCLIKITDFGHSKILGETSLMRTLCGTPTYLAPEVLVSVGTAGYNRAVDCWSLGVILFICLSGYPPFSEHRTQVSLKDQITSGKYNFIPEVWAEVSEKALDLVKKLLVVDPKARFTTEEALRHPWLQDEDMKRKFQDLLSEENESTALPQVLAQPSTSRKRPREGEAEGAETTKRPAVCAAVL
T4 sequence (P53779 whole entry): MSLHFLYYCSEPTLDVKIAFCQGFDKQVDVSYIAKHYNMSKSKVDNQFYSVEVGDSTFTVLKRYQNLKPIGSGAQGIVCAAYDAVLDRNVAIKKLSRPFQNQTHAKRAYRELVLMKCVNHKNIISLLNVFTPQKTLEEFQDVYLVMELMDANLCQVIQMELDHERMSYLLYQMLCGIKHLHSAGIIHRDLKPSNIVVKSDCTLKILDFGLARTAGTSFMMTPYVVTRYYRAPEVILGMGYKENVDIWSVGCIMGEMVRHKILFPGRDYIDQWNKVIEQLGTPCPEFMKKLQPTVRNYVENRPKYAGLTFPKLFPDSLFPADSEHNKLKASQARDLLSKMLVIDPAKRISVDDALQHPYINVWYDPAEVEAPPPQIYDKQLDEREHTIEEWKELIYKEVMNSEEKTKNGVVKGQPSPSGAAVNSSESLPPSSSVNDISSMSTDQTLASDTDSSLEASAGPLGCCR

Turning to `C=C[C@@](C)(/C=C/c1ccc(O)cc1)CCC=C(C)C` [BKC, Bakuchiol], the “CETSA in MCF-7 cells (40 μM BKC), western blot” value in test [1] is “BKC interacts with the catalytic subunits of Polδ and Polε in MCF-7 cells”; in test [2], “BKC interacts with the catalytic subunits of Polδ and Polε in MCF-7 cells”. Also, the “CETSA in Xenopus egg extracts (40 μM BKC), western blot” value in test [3] is recorded as “BKC specifically stabilize the catalytic subunit POLD1 of Polδ, but not that of the accessory subunit POLD3 in Xenopus”.

The IC50 is the concentration needed to halve the response being measured. With `CC(C)=CCc1c(O)ccc(C(=O)/C=C/c2ccc(O)cc2)c1O` [IBC, Isobavachalcone], the concentration for half-maximal inhibition (IC50) on Aurora-B stood at 11.2 µM; at JNK3, 16.4 µM; at Aurora-A, 11.2 µM; against CHK2, 3.5 µM; against AKT1/PKBα, 56.7 µM.
